For experiment [1], the system named is HeLa. The experiment in a line: Cytotoxicity against human HeLa cells assessed as reduction in cell viability at 0.0624 to 40 uM incubated for 48 hrs by MTT assay. The format is functional, cell-based. (In general: Tetrazolium assays rely on reduction of a dye to a coloured formazan, in cell work by metabolically active cells.)
Experiment [2] relates to SGC-7901. The experiment in a line: Cytotoxicity against human SGC7901 cells assessed as reduction in cell viability at 0.0624 to 40 uM incubated for 48 hrs by MTT assay. Type of experiment: functional, cell-based.
Experiment [3] has as its system A549. The experiment in a line: Cytotoxicity against human A549 cells assessed as reduction in cell viability at 0.0624 to 40 uM incubated for 48 hrs by MTT assay. The format is functional, cell-based.
Experiment [4] deals with Rhodobium porosum. Briefly: Insecticidal activity against Rhodobium porosum adults placed on 5 secs compound pre-treated bean leaves after 1 day by leaf dipping protocol based method. The format is functional.

The source of these data is ChEMBL document CHEMBL4043084, “Indole Alkaloids from Hunteria zeylanica” (J Nat Prod, 2017).

Active and inactive are the calls of the source. The rule behind the calls is not given here.

`C/C=C1/C[N@@+](C)([O-])[C@H]2Cc3c4n(c5ccccc35)C35[C@@H]6C[C@H]7/C(=C\C)CN6CCC3(c3ccccc3N5[C@@H]7C(=O)O)[C@H]4CC1[C@H]2C(=O)OC` (some centres not stated): the outcome in experiment [1], in experiment [2] and in experiment [3] was inactive.

`C/C=C1/CN2CCc3c([nH]c4ccc(O)c([C@H]5C[C@@H]6/C(=C\C)CN(C)[C@@H](Cc7c5[nH]c5ccccc75)[C@@]6(CO)C(=O)OC)c34)[C@@H]2C[C@@H]1CCO`: the result in experiment [1], in experiment [2] and in experiment [3] was inactive.

Turning to `C/C=C1/CN2CC[C@@]34CN5c6c(cccc6[C@@]67CCN8CCC[C@@]9(CC[C@@]56[C@H]9C)[C@H]87)[C@@]35[C@@H]2CC1[C@@H](C(=O)OC)N5c1ccccc14`, the result in experiment [1], in experiment [2] and in experiment [3] was inactive.

On to `C/C=C1/C[N@@+]2(C)CCc3c([nH]c4ccc(O)c([C@H]5C[C@@H]6/C(=C\C)CN(C)[C@@H](Cc7c5[nH]c5ccccc75)[C@@]6(CO)C(=O)OC)c34)[C@@H]2C[C@@H]1CCO`, for which the result in experiment [1], in experiment [2] and in experiment [3] was inactive.

Usually LC50 stands for the concentration lethal to half of the exposed cells or organisms. As for `C/C=C1\CN2CCc3c([nH]c4ccccc34)[C@@H]2C[C@@H]1CCO`, the result in experiment [1], in experiment [2] and in experiment [3] was inactive. For the same compound, the LC50 in experiment [4] came to 360 µM.

Take `CC[C@@]12CCCN3CCc4c(n(c5ccccc45)[C@@H](OC)C1)[C@H]32`: the outcome in experiment [1], in experiment [2] and in experiment [3] was inactive.

In the case of `C/C=C1\C[N+]2(C)CCc3c([nH]c4ccc(O)cc34)[C@@H]2C[C@@H]1CCO` (some centres not stated), the outcome in experiment [1], in experiment [2] and in experiment [3] was inactive.

`C/C=C1/C[N@+]2(C)CCc3c([nH]c4ccccc34)C[C@H]1CC2`: the outcome in experiment [1], in experiment [2] and in experiment [3] was inactive.

As for `CC[C@@H]1[C@H]2C[C@@H]3c4[nH]c5ccc(OC)cc5c4[C@@H](C(=O)[C@H]2CO)[C@@H]1N3C`, the result in experiment [1], in experiment [2] and in experiment [3] was inactive.

Regarding `C/C=C1/CN(C)[C@H]2Cc3c([nH]c4ccccc34)[C@@H](c3cc4[nH]c5c(c4cc3O)CCN3C[C@H](CC)[C@@H](CCO)C[C@@H]53)C[C@H]1[C@]2(CO)C(=O)OC`, the outcome in experiment [1], in experiment [2] and in experiment [3] was inactive.

As for `C/C=C1/CN2CCc3c4n(c5ccccc35)[C@H](C(=O)OC)[C@@H]1C[C@@H]42`, the outcome in experiment [1], in experiment [2] and in experiment [3] was inactive.

In the case of `O[C@@H]1CC[C@H]2CN3CCc4c([nH]c5ccccc45)[C@@H]3C[C@@H]2C1`, the result in experiment [1], in experiment [2] and in experiment [3] was inactive.

As to `CC[C@@]12CCCN3CCc4c(n(c5ccccc45)[C@H](OC)C1)[C@H]32`, the outcome in experiment [1], in experiment [2] and in experiment [3] was inactive.

With `C/C=C1/C[N@@+]2(C)CCc3c([nH]c4ccc(O)c([C@H]5C[C@H]6[C@@]7(C(=O)OC)CO[C@H](N(C)[C@H]7Cc7c5[nH]c5ccccc75)[C@@]65O[C@H]5C)c34)[C@@H]2C[C@@H]1CCO`, the outcome in experiment [1], in experiment [2] and in experiment [3] was inactive.

Regarding `C/C=C1/CN2CCc3c([nH]c4ccccc34)[C@@H]2C[C@@H]1[C@H](CO)C(=O)OC`, the result in experiment [1], in experiment [2] and in experiment [3] was inactive.

As for `O=[N+]([O-])/N=C1\NCCN1Cc1ccc(Cl)nc1`, the median lethal concentration (LC50) in experiment [4] worked out at 49 µM.

For the compound `C=C[C@H]1CN2CCc3c([nH]c4ccc(O)c([C@H]5C[C@@H]6/C(=C\C)CN(C)[C@@H](Cc7c5[nH]c5ccccc75)[C@@]6(CO)C(=O)OC)c34)[C@@H]2C[C@@H]1CCO`, the outcome in experiment [1], in experiment [2] and in experiment [3] was inactive.

For `CC[C@H]1CN2CCc3c([nH]c4ccccc34)[C@@H]2C[C@@H]1CCO`, the result in experiment [1], in experiment [2] and in experiment [3] was inactive. The median lethal concentration (LC50) in experiment [4] was 291 µM.

With `CC[C@]12CCCN3CC[C@]4(C(=C(C(=O)OC)C1)Nc1ccccc14)[C@@H]32`, the result in experiment [1], in experiment [2] and in experiment [3] was inactive.

With `O[C@H]1CC[C@H]2CN3CCc4c([nH]c5ccccc45)[C@@H]3C[C@@H]2C1`, the result in experiment [1], in experiment [2] and in experiment [3] was inactive.

Regarding `C=C[C@H]1CN2CCc3c([nH]c4ccc(O)cc34)[C@@H]2C[C@@H]1CCO`, the result in experiment [1], in experiment [2] and in experiment [3] was inactive. Further, the median lethal concentration (LC50) in experiment [4] is 168 µM.

As to `C/C=C1/CN2CC[C@@]34CN5c6c(cccc6[C@@]67CC[N+]8([O-])CCC[C@@]9(CC[C@@]56[C@H]9C)[C@@H]78)[C@@]35[C@@H]2CC1[C@@H](C(=O)OC)N5c1ccccc14` (some centres not stated), the outcome in experiment [1], in experiment [2] and in experiment [3] was inactive.
